Like-named read-outs stand apart in the source and are kept apart here.
Columns and labels:
[1] = tested on: metrazol-induced convulsions; experiment: Suppression of Metrazol-Induced Convulsions in Adult Male Mice; format: in vivo; settings: for ED50: Mus musculus, ip
Protocol: Assay to Determine the Suppression of Metrazol-Induced Convulsions in Adult Male Mice
Male CD1 mice, were fasted at least 16 hours, were divided into equal groups and test compounds or vehicle were administered parenterally. Water was not withheld except during the period of observations. […] Metrazol was dissolved in 0.9% sodium chloride solution, and its dose volume was 10 ml/kg. Animals were housed individually for observation of clonic convulsions, tonic convulsions and death for a period of 30 min. […] The biological assay was considered to be valid if the effects of a known anticonvulsant (positive control) were detected, within the same experiment. Activity was reported as percent reduction of clonic convulsions from the vehicle group.

[2] = tested on: metrazol-induced convulsions; experiment: as above; format: in vivo; settings: for ED50: Mus musculus, po
[3] = tested on: Anxiety in the Adult Male Rat; experiment: Suppression of Anxiety in the Adult Male Rat (rat conflict test); format: in vivo, rats; settings: for minimal effective dose: Rattus norvegicus
Protocol: Assay to Measure the Suppression of Anxiety in the Adult Male Rat
Male rats were deprived of water for 48 hours and were deprived of food for 24 hours prior to testing. After the first 24 hours of water deprivation, they were placed in the conflict chamber for a training period; wherein, they were allowed 200 unpunished licks from a bottle containing tap water. The experiment was run the next day. At the expected time of peak activity, the animals were placed in the chamber and allowed access to tap water. […] Their first lick initiates a 3-min test session. Subsequently, every 20th lick was punished by a 0.2-s shock delivered via the stainless-steel drinking-tube.
The Wilcoxon rank-sum test (Mann-Whitney U-test) was used to test for an increase (p<0.05, 1-tailed) in the median number of shocks in drug-treated groups, compared to a concurrently run vehicle-treated group. The biological assay is considered to be valid if the effects of a known anxiolytic (positive control) are detected, within the same experiment.

[4] = biological target: benzodiazepine site of the GABA-A receptor; experiment: Benzodiazepine Receptor Binding Assay (inhibition of 3H-flunitrazepam binding); settings: read-out: GABAA Receptor Binding IC50
[5] = po, minimum effective dose, increase in shocks tolerated, >10 = active dose not determined, read-out: Rat Conflict (MED, mg/kg) po
[6] = inhibition of 3H-flunitrazepam (ca. 3 nM) binding to membranes, 25°C, over 10,000 = not active
[7] = block of clonic convulsions, male CD1 mice, >30 = active dose not determined
[8] = ip, rat, ip, read-out: Rat Conflict (MED, mg/kg) ip
[9] = po, rat, po, read-out: Rat Conflict (MED, mg/kg) po

Compound	IC50 [4]	minimal effective dose [3, 5]	IC50 [4, 6]	minimal effective dose [3, 9]	also measured
7-Fluoro-1,2-dihydro-5-[2-(methoxy)ethoxymethyl]-3-oxo-N-(2-fluorophenyl)pyrido[1,2-a]benzimidazole-4-carboxamide [Compound 160]	0.48 nM				Mouse Metrazol (ED50, mg/kg) ip ([1]; mouse): <1 mg/kg; Mouse Metrazol (ED50, mg/kg) po ([2]; mouse): 0.3 mg/kg; Rat Conflict (MED, mg/kg) ip ([3]; rat, ip): <10 mg/kg; Rat Conflict (MED, mg/kg) po ([3]; rat, po): 1 mg/kg
O=C(CN1C2=C(C(=O)Nc3ccccc3F)C(=O)CCN2c2ccc(F)cc21)NCCc1c[nH]cn1 [Compound 32]		> 3 mg/kg	3.56 nM		
CN=C(NCCN1C2=C(C(=O)Nc3ccccc3F)C(=O)CCN2c2ccc(F)cc21)N1CCCC1 [Compound 33]		> 3 mg/kg	54 nM		
COc1cccc2c1N(CCN(C)C)C1=C(C(=O)Nc3nccs3)C(=O)CCN12 [Compound 34]		> 3 mg/kg	1000 nM		
Cc1ccc(NC(=O)C2=C3N(CCNS(=O)(=O)C(F)(F)F)c4cc(F)ccc4N3CCC2=O)s1 [Compound 35]		> 10 mg/kg	46.9 nM		
N#CCCNC(=O)CN1C2=C(C(=O)Nc3ccccc3F)C(=O)CCN2c2ccc(F)cc21 [Compound 36, 7-Fluoro-1,2-dihydro-5-[N-(2-cyanoethyl)-2-acetamido]-3-oxo-N-(2-fluorophenyl)pyrido[1,2-a]benzimidazole-4-carboxamide]		> 10 mg/kg	3.3 nM		ED50 [1, 7]: > 1 mg/kg; ED50 [2, 7]: > 30 mg/kg
CN(CCN1C2=C(C(=O)Nc3ccccc3F)C(=O)CCN2c2ccc(F)cc21)S(=O)(=O)C(F)(F)F [Compound 37]		> 10 mg/kg	18.3 nM		ED50 [1, 7]: > 1 mg/kg; ED50 [2, 7]: > 30 mg/kg
COCCN(C)CCN1C2=C(C(=O)Nc3ccccc3F)C(=O)CCN2c2ccc(F)cc21 [Compound 38, 7-Fluoro-1,2-dihydro-5-[N-(2-(methoxy)ethyl)-2-(methylamino)ethyl]-3-oxo-N-(2-fluorophenyl)pyrido[1,2-a]-benzimidazole-4-carboxamide]		3 mg/kg	4.06 nM		ED50 [1, 7]: < 1 mg/kg; ED50 [2, 7]: 1 mg/kg
O=C1CCN2C(=C1C(=O)Nc1ccccc1F)N(CCNS(=O)(=O)c1ccc(C(F)(F)F)cc1)c1cc(F)ccc12 [Compound 39]		> 10 mg/kg	122 nM		ED50 [1, 7]: > 1 mg/kg; ED50 [2, 7]: > 3 mg/kg
CN(C)C=NCCN1C2=C(C(=O)Nc3ccccc3F)C(=O)CCN2c2ccc(F)cc21 [Compound 40]		10 mg/kg	35 nM		ED50 [1, 7]: < 1 mg/kg; ED50 [2, 7]: ~30 mg/kg
CCN(C)CCN1C2=C(C(=O)Nc3ccccc3F)C(=O)CCN2c2ccc(F)cc21 [Compound 41]		10 mg/kg	9.8 nM		ED50 [1, 7]: 3 mg/kg; ED50 [2, 7]: ~10 mg/kg
O=C(CN1C2=C(C(=O)Nc3c(F)cccc3F)C(=O)CCN2c2ccc(F)cc21)Nc1ccccc1F [Compound 60]	21.4 nM				ED50 ([1]; mouse): 10 mg/kg; ED50 ([2]; mouse): > 30 mg/kg
O=C1CCN2C(=C1C(=O)Nc1c(F)cccc1F)N(CCN(Cc1ccccc1)Cc1ccccc1)c1cc(F)ccc12 [Compound 63, 7-Fluoro-1,2-dihydro-5-[N,N-di(benzyl)-2-aminoethyl]-3-oxo-N-(2,6-difluorophenyl)pyrido[1,2-a]benzimidazole-4-carboxamide]	15.5 nM				minimal effective dose [3, 8]: > 10 mg/kg
CCOCN1C2=C(C(=O)Nc3ccc(OCc4ccccc4)cc3F)C(=O)CCN2c2ccc(F)cc21 [Compound 92]	3.33 nM			> 3 mg/kg	
CCOCN1C2=C(C(=O)Nc3ccc(OCCOC)cc3F)C(=O)CCN2c2ccc(F)cc21 [Compound 93]	1.8 nM			≤ 0.3 mg/kg	
O=C1CCN2C(=C1C(=O)Nc1ccccc1F)N(CCO)c1c(O)cccc12 [Compound 94, 6-Hydroxy-1,2-dihydro-5-(2-hydroxyethyl)-3-oxo-N-(2-fluorophenyl)pyrido[1,2-a]benzimidazole-4-carboxamide]	2.38 nM			> 10 mg/kg	

Compound	IC50 [4]	minimal effective dose [3, 5]	IC50 [4, 6]	minimal effective dose [3, 9]	also measured
CCOCN1C2=C(C(=O)Nc3ccc(OC(C)C)cc3F)C(=O)CCN2c2ccc(F)cc21 [Compound 95]	2.5 nM			≤ 3 mg/kg	
COCCN1C2=C(C(=O)Nc3ccccc3F)C(=O)CCN2c2cccc(OC)c21 [Compound 96]	1.8 nM			> 10 mg/kg	
CCOCN1C2=C(C(=O)Nc3ccc(OC)cc3F)C(=O)CCN2c2ccc(F)cc21 [Compound 97, 7-Fluoro-1,2-dihydro-5-ethoxymethyl-3-oxo-N-(2-fluoro-4-methoxyphenyl)pyrido[1,2-a]benzimidazole-4-carboxamide]	0.41 nM			0.03 mg/kg	ED50 ([2]; mouse): ≤ 0.3 mg/kg; minimal effective dose [3, 8]: ≤ 0.1 mg/kg
COCCN1C2=C(C(=O)Nc3ncc(C)s3)C(=O)CCN2c2ccccc21 [Compound 98]	11 nM			3 mg/kg	
CCOCN1C2=C(C(=O)Nc3ccc(O)cc3F)C(=O)CCN2c2ccc(F)cc21 [Compound 99, 7-Fluoro-1,2-dihydro-5·ethoxymethyl·3-oxo-N-(2-fluoro-4-hydroxyphenyl)pyrido[1,2-a]benzimidazale-4-carboxamide]	1.38 nM			1 to 3 mg/kg	ED50 ([2]; mouse): 0.3 to 3 mg/kg; minimal effective dose [3, 8]: ≤ 1 mg/kg
COCCN1C2=C(C(=O)Nc3ccccc3F)C(=O)CCN2c2c(OCc3ccccc3)cccc21 [Compound 109]	> 1000 nM			> 10 mg/kg	
CCOCN1C2=C(C(=O)Nc3ccccc3F)C(=O)CCN2c2cc(F)cc(F)c21 [Compound 112]	13.3 nM			> 10 mg/kg	
CCOCN1C2=C(C(=O)Nc3ccc(F)cc3F)C(=O)CCN2c2cc(F)cc(F)c21 [Compound 113]	44.3 nM			> 10 mg/kg	
CCOCN1C2=C(C(=O)Nc3cc4ccccc4s3)C(=O)CCN2c2ccc(F)cc21 [Compound 115]	53.5 nM				ED50 ([1]; mouse): > 1 mg/kg; ED50 ([2]; mouse): > 30 mg/kg
CCOCCN1C2=C(C(=O)Nc3cc4ccccc4s3)C(=O)CCN2c2ccc(F)cc21 [Compound 117]	106 nM				ED50 ([1]; mouse): ≤ 1 mg/kg; ED50 ([2]; mouse): > 30 mg/kg
CC(=O)OCCN1C2=C(C(=O)Nc3ccccc3F)C(=O)CCN2c2ccc(F)cc21 [Compound 119, 7-Fluoro-1,2-dihydro-5-(2-acetoxyethyl)-3-oxo-N-(2-fluorophenyl)pyrido[1,2-a]benzimidazole-4-carboxamide]				3 mg/kg	ED50 ([1]; mouse): < 1 mg/kg; ED50 ([2]; mouse): ≤ 3 mg/kg
CCOCCN1C2=C(C(=O)Nc3ccc(Cl)s3)C(=O)CCN2c2ccc(F)cc21 [Compound 132]	3.13 nM			> 3 mg/kg	
CCOCN1C2=C(C(=O)Nc3ccc(C)s3)C(=O)CCN2c2ccc(F)cc21 [Compound 133]	0.68 nM			> 3 mg/kg	
O=C1CCN2C(=C1C(=O)Nc1ccccc1F)N(CC(O)CO)c1cc(F)ccc12 (stereo not shown) [Compound 162, 7-Fluoro-1,2-dihydro-5-[2,3-dihydroxypropyl]-3-oxo-N-(2-fluorophenyl)pyrido[1,2-a]benzimidazole-4-carboxamide]				> 10 mg/kg	ED50 ([1]; mouse): 3 mg/kg; ED50 ([2]; mouse): ≤ 30 mg/kg; minimal effective dose [3, 8]: ≤ 10 mg/kg
C[S+]([O-])CCN1C2=C(C(=O)Nc3ccccc3F)C(=O)CCN2c2ccc(F)cc21 (stereo not shown) [Compound 183, 7-Fluoro-1,2-dihydro-5-[2-(methylsulfoxy)ethyl]-3-oxo-N-(2-fluorophenyl)pyrido[1,2-a]benzimidazole-4-carboxamide]		10 mg/kg			ED50 [1, 7]: > 1 mg/kg; ED50 [2, 7]: ~10 mg/kg
